Measurements taken from patent US7985731B2, “Sugar chain added GLP-1 peptide” (Otsuka Chemical Holdings Co., Ltd., priority 2007, dated 2011).
Peptide text beside a SMILES is read from it. * marks the point of attachment. X1 = CC(=O)N[C@@H]1[C@@H](O)[C@H](O[C@@H]2O[C@H](CO)[C@@H](O[C@@H]3O[C@H](CO[C@H]4O[C@H](CO)[C@@H](O)[C@H](O)[C@@H]4O[C@@H]4O[C@H](CO)[C@@H](O[C@@H]5O[C@H](CO[C@]6(C(=O)O)C[C@H](O)[C@@H](NC(C)=O)[C@H]([C@H](O)[C@H](O)CO)O6)[C@H](O)[C@H](O)[C@H]5O)[C@H](O)[C@H]4NC(C)=O)[C@@H](O)[C@H](O[C@H]4O[C@H](CO)[C@@H](O)[C@H](O)[C@@H]4O[C@@H]4O[C@H](CO)[C@@H](O[C@@H]5O[C@H](CO[C@]6(C(=O)O)C[C@H](O)[C@@H](NC(C)=O)[C@H]([C@H](O)[C@H](O)CO)O6)[C@H](O)[C@H](O)[C@H]5O)[C@H](O)[C@H]4NC(C)=O)[C@@H]3O)[C@H](O)[C@H]2NC(C)=O)[C@@H](CO)O[C@H]1NC(=O)C*

Assays:
[1] = test system: db/db (BKS.Cg-+Lepr db/+Lepr db/Jcl) mice; assay: Test Example 8: effect of lowering blood-sugar levels in diabetes model mice; assay type: in vivo; conditions: 9 nmol/kg intraperitoneal
Experimental: The oligosaccharide chain added GLP-1 peptide prepared in Example 2, 3, 4, 21 or 23 or the GLP-1 prepared in Comparative Example 1 in a PBS solution (9 nmol/10 ml) was intraperitoneally administered at a dose of 10 ml/kg to BKS.Cg−+Lepr^db/+Lepr^db/Jcl mice (10 week old, male). Blood was collected from the orbits before the compound administration and 30 minutes, 60 minutes, 120 minutes, 180 minutes and 300 minutes after the compound administration. Blood-sugar levels were measured using ACCU-CHEK Aviva (Roche Diagnostics).
The db/db (BKS.Cg−+Lepr^db/+Lepr^db/Jcl) mice serving as diabetes model mice have a mutation in a receptor of leptin which is anorexigenic/energy metabolism-accelerating hormone and develops conditions such as obesity or hyperglycemia.
Blood-sugar levels were measured over time, and their effects of lowering blood-sugar levels were compared with that of the GLP-1 without oligosaccharide chain addition of Comparative Example 1.

[2] = test system: C57BL/6JJcl mice; assay: Test Example 7: Oral Glucose Tolerance Test (OGTT); assay type: in vivo
Experimental: After 30 minutes, a glucose solution was orally administered at a dose of 1 mg/g. Blood was collected from the orbits before the glucose administration and 30 minutes, 60 minutes and 120 minutes after the glucose administration. Blood-sugar levels were measured using ACCU-CHEK Aviva (Roche Diagnostics).
After the oral administration of the glucose solution to the mice fasted overnight, blood was collected over time, and blood-sugar levels were measured.
The correlation between the oligosaccharide chain structure and the activity was studied in mouse OGTT.

[3] = target: T1, mouse GLP-1 receptor (Mus musculus, UniProt O35659); assay: Test Example 6: ability to synthesize cAMP in mouse GLP-1 receptor-expressing CHO-K1 cells; assay type: cell-based
T1 construct: expressed in transfected cells
T1 sequence (O35659 22-463): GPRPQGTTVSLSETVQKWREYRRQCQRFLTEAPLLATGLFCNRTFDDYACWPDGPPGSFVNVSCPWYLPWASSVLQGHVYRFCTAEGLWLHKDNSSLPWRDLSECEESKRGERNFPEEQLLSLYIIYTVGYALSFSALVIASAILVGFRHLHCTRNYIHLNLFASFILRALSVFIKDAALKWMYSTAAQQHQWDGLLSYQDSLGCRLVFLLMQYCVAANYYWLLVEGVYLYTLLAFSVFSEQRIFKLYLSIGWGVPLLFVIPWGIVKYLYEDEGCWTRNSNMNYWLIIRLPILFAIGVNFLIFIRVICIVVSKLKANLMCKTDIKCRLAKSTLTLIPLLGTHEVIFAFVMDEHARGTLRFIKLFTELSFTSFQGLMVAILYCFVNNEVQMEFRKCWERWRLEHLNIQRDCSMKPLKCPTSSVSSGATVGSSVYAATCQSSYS
Experimental: 1. Construction of Mouse GLP-1 Receptor-Expressing Vector
A mouse GLP1 receptor sense primer (5′-[…]-3′) (SEQ ID NO: 152) and a mouse GLP-1 receptor antisense primer (5′-[…]-3′) (SEQ ID NO: 153) capable of binding to the 5′ and 3′ ends of mouse GLP-1 receptor cDNA were separately synthesized. PCR was performed using Ex Taq polymerase (TaKaRa) with cDNA (Clone ID: 40046534, Open Biosystems) as a template. Specifically, 50 μL in total of reaction solution consisting of 1 μL of template cDNA (10 ng/μL), 4 μL of 2.5 mM dNTPs, 1 μL of primer solution mixtures (each 50 μM), 5 μL of ×10 Ex Taq polymerase Buffer, 0.25 μL of Ex Taq polymerase and 38.75 μL of sterilized water was used and allowed to react by 94° C. for 1 minute; 94° C. for 45 seconds, 55° C. for 1 minute and 72° C. for 2 minutes (35 cycles); and 72° C. for 10 minutes. The PCR reaction product was electrophoresed on 1% agarose gel, and the cDNA fragment was purified using Wizard SV Gel and PCR Clean-up System (Promega) and treated with restriction enzymes (EcoRI and NheI) to obtain mouse GLP-1 receptor cDNA.
To efficiently obtain cells highly expressing a mouse GLP-1 receptor, a pIRES-gfp vector was used as an expression vector. This vector was prepared by inserting, to a vector pEGFP-N1 (Clontech), an IRES gene-containing DNA fragment obtained by the restriction enzyme treatment (Sal I and BamHI) of pIRESpuro2 (Clontech).
The mouse GLP-1 receptor cDNA fragment was inserted to pIRES-gfp to thereby obtain a mouse GLP-1 receptor-expressing vector mGLP-1R/pIRES-gfp. The DNA sequence of the obtained vector was confirmed using ABI3100-Avant (Applied Biosystems).
2. Preparation of Mouse GLP-1 Receptor-Expressing CHO-K1 Cells
CHO-K1 cells (ATCC catalog No. CCL-61) were transfected with the obtained mGLP-1R/pIRES-gfp using FuGENE (registered trademark) (Roche) according to the instruction manual. The transfected CHO-K1 cells were cultured in RPMI1640 medium (Wako Pure Chemical Industries) containing 10% FCS (Hyclone) and penicillin-streptomycin (SIGMA). Drug selection was conducted by the addition of 1.0 mg/ml G418 (Wako Pure Chemical Industries). The drug resistance cells were sorted with a cell sorter (EPICS ALTRA, Beckman Coulter) using a GFP expression level as an index. After the sorting, the limiting dilution method was conducted to obtain cells highly expressing GFP, namely, cells highly expressing a mouse GLP-1 receptor. The obtained cells were used as mouse GLP-1 receptor-expressing CHO-K1 cells in the experiment shown below.
3. Analysis of Agonist Effect of Oligosaccharide Chain Added GLP-1 Peptide (Ability to Synthesize cAMP)
The mouse GLP-1 receptor-expressing CHO-K1 cells prepared in the preceding paragraph 2 were used to evaluate the agonist effect of the oligosaccharide chain added GLP-1 peptide using the ability to synthesize cAMP as an index.
The mouse GLP-1 receptor-expressing CHO-K1 cells were suspended at a concentration of 5×10^5 cells/ml in RPMI1640 medium containing 10% FCS. The cell suspension was seeded at a concentration of 100 μL per well to a flat-bottomed 96-well plate (Falcon) and cultured at 5% CO2 at 37° C. for 16 hours. The culture supernatant was discarded. The oligosaccharide chain added GLP-1 peptide dissolved in Krebs Ringer bicarbonate Buffer containing 2.5 mM glucose was added at a concentration of 100 μL/well and cultured at 37° C. for 30 minutes. The culture supernatant was immediately discarded. The amount of cAMP synthesized in the mouse GLP-1 receptor-expressing CHO-K1 cells was measured using cAMP ELISA Kit (GE Healthcare or Cayman) and used as an index for the agonist effect of the oligosaccharide chain added GLP-1 peptide on mouse GLP-1 receptors.
GLP-1 increases intracellular cAMP concentrations through the binding to its receptor and promotes insulin secretion. Thus, the activity of the oligosaccharide chain added GLP-1 peptide was evaluated using the ability to synthesize cAMP as an index. […]

[4] = 9 nmol/kg intraperitoneal 30 minutes before glucose 1 mg/g oral

Row | Compound | effect of lowering blood-sugar levels in db/db mice ([1]; 10-week-old male mice) | durability of effect of lowering blood-sugar levels in db/db mice ([1]; up to 300 minutes) | activity of suppressing rise in blood-sugar levels in OGTT ([2]; 0.09 nmol/kg intraperitoneal) | effect of suppressing rise in blood-sugar levels in OGTT ([2]; 0.9 nmol/kg intraperitoneal) | effect of suppressing rise in blood-sugar levels in OGTT [2, 4] | dose dependence of activity of suppressing rise in blood-sugar levels in OGTT ([2]; doses 0.9 nmol/kg and 0.09 nmol/kg intraperitoneal) | cAMP synthesis activity compared with GLP-1 (in words) [3]
1 | CC[C@H](C)[C@H](NC(=O)[C@H](Cc1ccccc1)NC(=O)[C@H](CCC(=O)O)NC(=O)[C@H](CCCCN)NC(=O)[C@H](C)NC(=O)[C@H](C)NC(=O)[C@H](CCC(N)=O)NC(=O)CNC(=O)[C@H](CCC(=O)O)NC(=O)[C@H](CC(C)C)NC(=O)[C@H](Cc1ccc(O)cc1)NC(=O)[C@H](CO)NC(=O)[C@H](CO)NC(=O)[C@@H](NC(=O)[C@H](CC(=O)O)NC(=O)[C@H](CO)NC(=O)[C@@H](NC(=O)[C@H](Cc1ccccc1)NC(=O)[C@@H](NC(=O)CNC(=O)[C@H](CCC(=O)O)NC(=O)[C@H](C)NC(=O)[C@@H](N)Cc1c[nH]cn1)[C@@H](C)O)[C@@H](C)O)C(C)C)C(=O)N[C@@H](CSCC(=O)N[C@@H]1O[C@H](CO)[C@@H](O[C@@H]2O[C@H](CO)[C@@H](O[C@@H]3O[C@H](CO[C@H]4O[C@H](CO)[C@@H](O)[C@H](O)[C@@H]4O[C@@H]4O[C@H](CO)[C@@H](O[C@@H]5O[C@H](CO[C@]6(C(=O)O)C[C@H](O)[C@@H](NC(C)=O)[C@H]([C@H](O)[C@H](O)CO)O6)[C@H](O)[C@H](O)[C@H]5O)[C@H](O)[C@H]4NC(C)=O)[C@@H](O)[C@H](O[C@H]4O[C@H](CO)[C@@H](O)[C@H](O)[C@@H]4O[C@@H]4O[C@H](CO)[C@@H](O[C@@H]5O[C@H](CO[C@]6(C(=O)O)C[C@H](O)[C@@H](NC(C)=O)[C@H]([C@H](O)[C@H](O)CO)O6)[C@H](O)[C@H](O)[C@H]5O)[C@H](O)[C@H]4NC(C)=O)[C@@H]3O)[C@H](O)[C@H]2NC(C)=O)[C@H](O)[C@H]1NC(C)=O)C(=O)N[C@@H](Cc1c[nH]c2ccccc12)C(=O)N[C@@H](CC(C)C)C(=O)N[C@H](C(=O)N[C@@H](CCCCN)C(=O)NCC(=O)N[C@@H](CCCNC(=N)N)C(=O)NCC(=O)O)C(C)C [Example 21, 30Cys GLP-1-disialo] (H-HAEGTFTSDVSSYLEGQAAKEFIC(X1)WLVKGRG-OH) | strong effect of lowering blood-sugar levels | blood-sugar levels were kept at low levels after 300 minutes | weaker activity of suppressing rise in blood-sugar levels than that of the 36Cys GLP-1-disialo at the same dose | suppressed rise in blood-sugar levels almost completely | strong effect of suppressing rise in blood-sugar levels | dose-dependent activity of suppressing rise in blood-sugar levels | activity equal to or more than that of the GLP-1
2 | CC[C@H](C)[C@H](NC(=O)[C@H](Cc1ccccc1)NC(=O)[C@H](CCC(=O)O)NC(=O)[C@H](CCCCN)NC(=O)[C@H](C)NC(=O)[C@H](C)NC(=O)[C@H](CCC(N)=O)NC(=O)CNC(=O)[C@H](CCC(=O)O)NC(=O)[C@H](CC(C)C)NC(=O)[C@H](Cc1ccc(O)cc1)NC(=O)[C@H](CO)NC(=O)[C@H](CO)NC(=O)[C@@H](NC(=O)[C@H](CC(=O)O)NC(=O)[C@H](CO)NC(=O)[C@@H](NC(=O)[C@H](Cc1ccccc1)NC(=O)[C@@H](NC(=O)CNC(=O)[C@H](CCC(=O)O)NC(=O)[C@H](C)NC(=O)[C@@H](N)Cc1c[nH]cn1)[C@@H](C)O)[C@@H](C)O)C(C)C)C(=O)N[C@@H](C)C(=O)N[C@@H](Cc1c[nH]c2ccccc12)C(=O)N[C@@H](CC(C)C)C(=O)N[C@H](C(=O)N[C@@H](CCCCN)C(=O)NCC(=O)N[C@@H](CCCNC(=N)N)C(=O)NCC(=O)N[C@@H](CSCC(=O)N[C@@H]1O[C@H](CO)[C@@H](O[C@@H]2O[C@H](CO)[C@@H](O[C@@H]3O[C@H](CO[C@H]4O[C@H](CO)[C@@H](O)[C@H](O)[C@@H]4O[C@@H]4O[C@H](CO)[C@@H](O[C@@H]5O[C@H](CO[C@]6(C(=O)O)C[C@H](O)[C@@H](NC(C)=O)[C@H]([C@H](O)[C@H](O)CO)O6)[C@H](O)[C@H](O)[C@H]5O)[C@H](O)[C@H]4NC(C)=O)[C@@H](O)[C@H](O[C@H]4O[C@H](CO)[C@@H](O)[C@H](O)[C@@H]4O[C@@H]4O[C@H](CO)[C@@H](O[C@@H]5O[C@H](CO[C@]6(C(=O)O)C[C@H](O)[C@@H](NC(C)=O)[C@H]([C@H](O)[C@H](O)CO)O6)[C@H](O)[C@H](O)[C@H]5O)[C@H](O)[C@H]4NC(C)=O)[C@@H]3O)[C@H](O)[C@H]2NC(C)=O)[C@H](O)[C@H]1NC(C)=O)C(=O)O)C(C)C [Example 5, 38Cys GLP-1-disialo] |  |  |  |  | strong effect of suppressing rise in blood-sugar levels |  | activity equal to or more than that of the GLP-1
